{"source": "patent US20260207626A1", "about": "“SYNTHETIC TRITERPENOIDS AND COMPOSITIONS THEREOF IN WEIGHT MANAGEMENT, SKELETAL MUSCLE FUNCTION, AND APPETITE SUPPRESSION” (The Board of Regents of the University of Texas System, priority 2022, published 2026)", "tested_on": "GLUT4", "test": "GLUT4myc translocation by immunofluorescence in L6-GLUT4myc myotubes", "assay_type": "cell-based, rat", "protocol": "Immunofluorescence and confocal microscopy were employed to visualize the localization of c-myc epitope-tagged GLUT4 in L6-GLUT4myc myotubes treated with CDDO-EA for 1 h. L6-GLUT4myc myotubes were also treated with insulin alone for 15 min as a positive control.\nTo examine the properties of CDDO-EA in regulating glucose metabolism in the skeletal muscle, the present study examined whether CDDO-EA induces translocation of GLUT4 to the cell surface (FIG. 16A). Immunofluorescence and confocal microscopy were used to visualize the localization of c-myc epitope-tagged GLUT4 in L6-GLUT4myc cells.\nImmunofluorescence microscopy: L6-GLUT4myc myoblasts (4×10^4 cells/ml, 0.2 ml/well) were plated onto Nunc Lab-TekII 8-chamber slides (Thermo Fisher Scientific) and differentiated for 7 days. Myotubes were pre-treated with CDDO-EA 500 nM for 1 h followed by LPS 100 ng/ml (E. coli O111: B4, Sigma Aldrich) treatment for 1 h. After treatment, myotubes were fixed, permeabilized, and stained with anti-NF-κB p65 primary antibody (cat #sc-372, 1:100, Santa Cruz Biotechnology) and a goat anti-rabbit secondary antibody conjugated with Alexa Fluor® 488 (cat #A32731, 1:500, Invitrogen) as previously described. For GLUT4myc cell membrane staining, myotubes were pre-treated with CDDO-EA 500 nM for 1 h followed by LPS 100 ng/ml (E. coli 0111: B4, Sigma Aldrich) treatment for 1 h. Insulin 100 nM (cat #19278, Sigma Aldrich) treatment was for 15 min. After CDDO-EA, LPS, and insulin treatment, myotubes were fixed without permeabilization and stained with anti-c-myc primary antibody (cat #C3956, 1:100, Sigma Aldrich) and a goat anti-rabbit secondary antibody conjugated with Alexa Fluor® 488 (cat #A32731, 1:500, Invitrogen) as previously described.", "note": "Entries after “also recorded” stand apart in the source; their conditions may differ."}
{"smiles": "CCNC(=O)[C@]12CCC(C)(C)C[C@H]1C1C(=O)C=C3[C@@]4(C)C=C(C#N)C(=O)C(C)(C)[C@@H]4CC[C@@]3(C)[C@]1(C)CC2", "note": "(stereo partly drawn) [CDDO-EA, (4aS,6aR,6bS,8aR,12aS,14bS)-11-cyano-N-ethyl-2,2,6a,6b,9,9,12a-heptamethyl-10,14-dioxo-1,3,4,5,6,6a,6b, 7,8,8a,9,10,12a, 14,14a, 14b-hexadecahydropicene-4a (2H)-carboxamide]", "values": [{"measurement": "CDDO-EA-stimulated GLUT4myc translocation in presence of LPS", "setting": "500 nM CDDO-EA 1 h then 100 ng/ml LPS 1 h", "result": "did not inhibit CDDO-EA-stimulated GLUT4myc translocation; also recorded: did not prevent CDDO-EA-stimulated GLUT4myc translocation to the cell surface"}, {"measurement": "GLUT4myc translocation to the cell surface", "setting": "CDDO-EA 500 nM 1 h, insulin 100 nM 15 min", "result": "induced GLUT4myc translocation to the cell surface; also recorded: activates GLUT4 translocation to cell membrane and p38 phosphorylation"}]}
